Results reported in patent publication US6995183B2, “Adamantylglycine-based inhibitors of dipeptidyl peptidase IV and methods” (Bristol Myers Squibb Company, priority 2003, dated 2006).
Like-named read-outs stand apart in the source and are kept apart here.

What was measured:
[1] = biological target: T1, Porcine Dipeptidyl Peptidase IV (Sus scrofa, UniProt P22411); assay: Assay of Porcine Dipeptidyl Peptidase IV, steady-state inhibition constants (Ki); type: biochemical; conditions: DPP-IV
T1 construct: left at 37° C. for 18 hours to facilitate cleavage of DPP-4 from cell membranes; from tissue; host or cells: pig kidney cortex
T1 sequence (P22411 38-766 limits assumed): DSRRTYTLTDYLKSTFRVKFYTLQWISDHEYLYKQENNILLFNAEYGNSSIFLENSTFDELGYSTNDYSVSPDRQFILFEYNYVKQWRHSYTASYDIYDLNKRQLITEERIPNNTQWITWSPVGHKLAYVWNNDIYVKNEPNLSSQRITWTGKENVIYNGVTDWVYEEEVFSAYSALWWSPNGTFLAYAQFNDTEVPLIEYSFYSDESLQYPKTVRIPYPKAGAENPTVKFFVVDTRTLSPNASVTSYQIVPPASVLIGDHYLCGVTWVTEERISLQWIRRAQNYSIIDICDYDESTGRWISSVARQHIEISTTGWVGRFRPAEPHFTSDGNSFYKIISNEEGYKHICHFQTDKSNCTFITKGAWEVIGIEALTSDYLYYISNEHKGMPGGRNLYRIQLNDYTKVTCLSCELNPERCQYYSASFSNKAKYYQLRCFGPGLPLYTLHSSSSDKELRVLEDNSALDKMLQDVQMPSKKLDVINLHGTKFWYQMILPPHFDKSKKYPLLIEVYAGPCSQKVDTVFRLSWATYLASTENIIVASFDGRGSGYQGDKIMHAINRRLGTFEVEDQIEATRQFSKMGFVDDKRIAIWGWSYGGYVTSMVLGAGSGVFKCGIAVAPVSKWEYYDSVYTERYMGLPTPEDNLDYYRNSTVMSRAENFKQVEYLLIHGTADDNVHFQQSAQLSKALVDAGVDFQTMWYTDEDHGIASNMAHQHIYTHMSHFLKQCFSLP
Method: DPP-4 inhibitor activity of the compounds of the invention may be determined by use of an in vitro assay system which measures the potentiation of inhibition of DPP-4.
Porcine enzyme was purified as previously described in reference (2) below, with several modifications. Kidneys from 15-20 animals were obtained, and the cortex was dissected away and frozen at −80° C. Frozen tissue (2000-2500 g) was homogenized in 12 L of 0.25 M sucrose in a Waring blender. The homogenate then was left at 37° C. for 18 hours to facilitate cleavage of DPP-4 from cell membranes. After the cleavage step, the homogenate was clarified by centrifugation at 7000×g for 20 min at 4° C., and the supernatant was collected. […]
After dialysis against 20 mM Na2HPO4, pH 7.4, the preparation was clarified by centrifugation at 10,000×g. […] Purity of column fractions was analyzed by reducing SDS-PAGE, and the purest fractions were pooled and concentrated. […]
Enzyme was assayed under steady-state conditions as previously described in reference (2) below with gly-pro-p-nitroanilide as substrate, with the following modifications. […] A standard curve for p-nitroaniline absorbance was obtained at the beginning of each experiment, and enzyme catalyzed p-nitroaniline production was quantitated from the standard curve. […]

plasma DPP-IV = biological target: T2, plasma DPP-IV (Rattus norvegicus, UniProt P14740); assay: Rat ex vivo plasma DPP-IV inhibition assay; type: in vivo, Zucker fa/fa rat; conditions: oral; for inhibition at 3 µmol/kg: rat, 3 μmol/kg
T2 construct: from tissue; host or cells: plasma of male Zucker fa/fa rats (Harlan)
T2 sequence (P14740 37-767 limits assumed): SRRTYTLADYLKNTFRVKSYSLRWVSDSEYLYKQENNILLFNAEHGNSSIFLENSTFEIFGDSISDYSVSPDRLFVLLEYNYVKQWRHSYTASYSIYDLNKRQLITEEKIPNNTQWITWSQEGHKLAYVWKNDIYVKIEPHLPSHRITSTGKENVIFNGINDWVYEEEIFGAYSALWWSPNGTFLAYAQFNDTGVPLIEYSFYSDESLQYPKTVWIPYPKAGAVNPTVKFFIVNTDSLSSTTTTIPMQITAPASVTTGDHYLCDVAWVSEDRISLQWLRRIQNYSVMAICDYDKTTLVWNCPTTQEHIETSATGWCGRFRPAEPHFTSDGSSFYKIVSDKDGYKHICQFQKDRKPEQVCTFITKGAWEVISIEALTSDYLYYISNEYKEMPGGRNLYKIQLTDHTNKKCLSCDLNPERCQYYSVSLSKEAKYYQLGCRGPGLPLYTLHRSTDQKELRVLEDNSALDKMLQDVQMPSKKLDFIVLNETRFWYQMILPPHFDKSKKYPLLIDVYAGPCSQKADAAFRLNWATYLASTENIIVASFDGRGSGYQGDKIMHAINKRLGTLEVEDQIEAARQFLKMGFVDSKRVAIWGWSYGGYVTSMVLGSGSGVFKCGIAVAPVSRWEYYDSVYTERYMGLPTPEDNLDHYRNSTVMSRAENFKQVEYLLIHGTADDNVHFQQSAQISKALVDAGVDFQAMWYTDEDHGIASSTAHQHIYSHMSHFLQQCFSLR

Zucker^fa/fa rat = assay: Oral glucose tolerance test (OGTT) in Zucker fa/fa rats; type: in vivo; conditions: for glucose control after oral glucose challenge (in words): rodent model of impaired glucose homeostasis
From the text: In vivo evaluation of DPP-IV inhibitors has supported the connection between DPP-IV inhibition, increases in plasma insulin levels, and an improvement in glucose tolerance.^1 Several compounds in the present series are potent inhibitors of DPP-IV in vitro. As such, these inhibitors were selected to determine the effects of DPP-IV inhibition ex vivo and on glucose tolerance in Zucker^fa/fa rat. The Zucker^fa/fa rat is a frequently used model in type II diabetes and obesity research. […] Plasma glucose levels were then monitored over a 2 h period. Columns 3 and 4 show the ex vivo plasma DPP-IV inhibition activity. […] In contrast, the adamantyl inhibitors show good inhibitory activity in the ex vivo assay, even at extended time points.
Male Zucker^fa/fa rats (Harlan) weighing between 400 and 450 g were housed in a room that was maintained on a 12 h light /dark cycle and were allowed free access to normal rodent chow and tap water. The day before the experiment, the rats were weighed and divided into control and treated groups of six. Rats were fasted 17 h prior to the start of the study. […] Two blood samples were collected at −30 and 0 min by tail bleed. Glucose (2 g/kg) was administered orally at 0 min. Additional blood samples were collected at 15, 30, 60, 90 and 120 min. Blood samples were collected into EDTA containing tubes from Starstedt. Plasma glucose was determined by Cobas Mira (Roche Diagnostics) by the glucose oxidation method.

[2] = Solution stability of 2-cyano-pyrrolidines; type: physicochemical
Method: In experiments at pH=7.2 and 39° C., the greater degree of β-branching the greater degree of stability associated with the compound. […] These are depected in the table below.

Compound: N#CC1CC2CC2N1C(=O)[C@@H](N)C12CC3CC(O)(CC(O)(C3)C1)C2.O=C(O)C(F)(F)F (stereo in doubt) [Example 8, (S)-3,5-Dihydroxyadamantylglycine-L-cis-4,5-methanoprolinenitrile TFA salt]
- Ki [1]: 17 nM
- % Inhibition in Rat Ex Vivo assay 3 μmol/kg 0.5 h post dose (plasma DPP-IV; 0.5 h post dose): 80%
- % Inhibition in Rat Ex Vivo assay 3 μmol/kg 4 h post dose (plasma DPP-IV; 4 h post dose): 67%

Compound: CC12CC3(C)CC(O)(C1)CC([C@H](N)C(=O)N1CCCC1)(C2)C3 [Example 5, (3-hydroxy-5,7-dimethyladamant-1-yl)-glycine pyrrolidine amide]
- Ki [1]: 133 nM
- inhibition at 3 µmol/kg (plasma DPP-IV; 0.5 h post dose, read-out: % Inhibition in Rat Ex Vivo assay 3 μmol/kg 0.5 h post dose): 70%
- inhibition at 3 µmol/kg (plasma DPP-IV; 4 h post dose, read-out: % Inhibition in Rat Ex Vivo assay 3 μmol/kg 4 h post dose): 66%
- Glucose Lowering at 4 h; % AUC's, compared to control (Zucker^fa/fa rat; oral, 3 μmol/kg, oral glucose 2 g/kg): −39%

Compound: N#C[C@@H]1CCCC1C(=O)C(N)C12CC3CC(CC(O)(C3)C1)C2 (stereo partly shown) [Example 9]
- glucose control after oral glucose challenge (in words) (Zucker^fa/fa rat): good glucose control

Compound: CC[C@H](C)[C@H](N)C(=O)N1CCC[C@H]1C#N [Ref. Std 1, iso-Leucine-cyanopyrrolide]
- Glucose Lowering at 4 h; % AUC's, compared to control (Zucker^fa/fa rat; dosed at 16 μm/kg): −11%
- Glucose Lowering at 4 h; % AUC's, compared to control (Zucker^fa/fa rat; dosed at 200 μm/kg): −19%
- glucose control after oral glucose challenge (in words) (Zucker^fa/fa rat): only a slight change in glucose control
- half-life ([2]; pH 7.2): 5 h

Compound: tert-Leucine-cyanopyrrolide
- times more stable than Ref. Std. 1 ([2]; pH=7.2, 39° C., ratio of t1/2): ~6
